Results as given in patent US20120143074A1, “METHOD OF EVALUATING SUITABILITY FOR DRUG THERAPY FOR THE PREVENTION AND TREATMENT OF ANXIETY DISORDERS USING CHOLINERGIC TYPE II THETA RHYTHM” (priority 2009, published 2012).

Columns and labels:
PLC-β4^−/− mice [1] = assay: Three anxiety behavioral assays after rivastigmine (overall); format: in vivo; details: 0.5 mg/kg i.p., 60 min after injection
Method: (§1) rivastigmine (Novartis Pharma, Basel, Switzerland), which is a cholinergic enhancer, was dissolved in saline. Animals were injected intraperitoneally (i.p.) with 0.5 mg/kg rivastigmine 60 min before the start of anxiety behavioral test (total volume, 5 ml/kg). […] Both PLC-β4^+/+(WT) and PLC-β4^−/−(KO) mice were randomly assigned to one of the following treatment groups: (1) WT-sham (wild-type mice with intraperitoneal injection of saline; n=10), (2) KO-sham (PLC-β4^−/− mice with intraperitoneal injection of saline; n=10), and (3) KO-rivastigmine (PLC-β4^−/− mice with intraperitoneal injection of rivastigmine; n=10). rivastigmine is a second-generation carbamate-based reversible non-competitive AChE and butyrylChE (BuChE) inhibitor. The reason for choosing the inhibitor is that an inhibitory effect sustains for a long period of time, the inhibitor is specific to the brain (Enz, A. et al., Prog. Brain Res. 98, 431-438, 1993), and the inhibitor selectively increases cholin activity in hippocampus and cortex (Weinstock, M., et al., J. Neural Transm. Suppl. 43, 219-225, 1994).
(§2) Whether rivastigmine administration could also rescue the increased anxiety phenotype of PLC-β4^−/− mice was investigated. To this end, rivastigmine (0.5 mg/kg, i.p.) was injected into PLC-β4^−/− mice and, 60 min after injection, the rivastigmine treated group was subjected to three anxiety behavioral assays.

PLC-β4^−/− mice [2] = assay: Open-field thigmotaxis test after rivastigmine; format: in vivo; details: 0.5 mg/kg i.p., 60 min before test
Method: Open field thigmotaxis was assessed by placing mice in the center of an open field apparatus (40×40×40 cm) under dim lighting. During a 10 min observation period, locomotor activity, number of central crosses, and time spent in the central sector of the open field were recorded and analyzed by PC-based video behavior assay system (TSE, Bad Homburg, Germany). Thigmotaxis index was defined as a ratio of the number of entries into the central part of a testing arena to the locomotor activity. The thigmotaxis index was calculated for each mouse separately and used to calculate means and SEMs for a given experimental group (Treit, D. & Fundytus, M., Pharmacol. Biochem. Behav. 31, 959-962, 1988; Sienkiewicz-Jarosz, H. et al., J Neural Transm. 107, 1403-1412, 2000).
as §1, §2

[3] = system: hippocampus acetylcholine concentration; details: 0.5 mg/kg of rivastigmine; microdialysis; cited from earlier work
PLC-β4^−/− mice [4] = assay: Elevated plus-maze after rivastigmine; format: in vivo; details: 0.5 mg/kg i.p., 60 min before test
Method: The elevated plus-maze consists of two open and two enclosed arms of the same size (45^┘ 5 cm) with walls 15 cm high. The arms, constructed of black acrylic, radiate from a central platform (5^┘ 5 cm) to form a plus sign. The entire apparatus was elevated to a height of 30 cm above floor level. Each mouse was placed in the central platform facing one of the open arms. The number of entries into the open and closed arms and the time spent on the open and closed arms were recorded during a 5 min test period (Parks, C. L. et al., Proc. Natl. Acad. Sci. USA 95, 10734-10739; 1998; Ramboz, S. et al., Proc. Natl. Acad. Sci. USA 95, 14476-14481, 1998; Gross, C. et al., Nature 416, 396-400, 2002).
(§3) rivastigmine (Novartis Pharma, Basel, Switzerland), which is a cholinergic enhancer, was dissolved in saline. Animals were injected intraperitoneally (i.p.) with 0.5 mg/kg rivastigmine 60 min before the start of anxiety behavioral test (total volume, 5 ml/kg). […]

PLC-β4^−/− mice [5] = assay: Hippocampal EEG theta rhythm in a novel environment after rivastigmine; format: in vivo; details: 0.5 mg/kg i.p.
Method: For electrode implantation, the animals were anesthetized with pentobarbital ([…], i.p.) and held in a stereotaxic apparatus with bregma and lambda in the same horizontal plane. Hippocampal EEG recordings were performed using Teflon-coated tungsten electrodes (150 um) implanted in the hippocampal fissure with grounding over the cerebellum (from bregma, 2.0 mm anteroposterior, 1.2 mm mediolateral, and 1.8 mm dorsoventral). The position of the electrodes was verified by light microscopy in Nissl-stained sections according to published protocols. Field potential was amplified (×1,000), bandpass-filtered (bandpass-filtered) (0.1-100 Hz), digitized with 12-bit resolution continuously at 1 kHz sampling, and recorded on a personal computer.
The EEG EEG data were collected in 4 s segments and fast-Fourier transformed (FFT). The data were continuously monitored for movement artifacts, and the recording of each segment was manually verified by the experimenter, blinded to the genotype of the animals. […] To compare the EEG spectral characteristics of hippocampal electrical activities, EEG spectral power in 1 Hz bins was calculated using FFT (Hamming window) of each 4 s epoch. […]
Cholinergic and noncholinergic theta rhythms associated with different behaviors were recorded. […] Non-cholinergic type I theta rhythms were recorded from mice walking in an open chamber or running on a wheel. […]

PLC-β4^−/− mice [6] = assay: Light/dark transition test after rivastigmine; format: in vivo; details: 0.5 mg/kg i.p., 60 min before test
Source text: The apparatus used for the light/dark transition test consisted of a cage (25×40×20 cm) divided into two compartments by a black partition containing a small opening that allows the mouse to move from one compartment to the other. One compartment, comprising two-thirds of the surface area, was made of white plastic and was brightly illuminated; the adjoining smaller compartment was black and dark. Mice were placed in the dark compartment and allowed to move freely between the two chambers for 5 min. The number of transitions between the two compartments, time spent in each chamber, and latency to the first transition were recorded (Welch, J. M. et al., Nature 448, 894-900, 2007).
as §3

Compound: CCN(C)C(=O)Oc1cccc([C@H](C)N(C)C)c1 [rivastigmine]
- increased anxiety phenotype in each of the three anxiety tests (PLC-β4^−/− mice [1]): showed a reversal of the increased anxiety phenotype
- locomotion in the center of the open field (PLC-β4^−/− mice [2]): wild-type levels of locomotion in the center of the open field
- thigmotaxis index (PLC-β4^−/− mice [2]): reduced thigmotaxis index to the same levels as those in wild-type mice injected with saline
- time spent in the central sector of the open field (PLC-β4^−/− mice [2]): levels comparable with those in wild-type mice injected with saline
- total locomotion activities in the open field (PLC-β4^−/− mice [2]): wild-type levels of total locomotion activities
- increase of hippocampus acetylcholine concentration [3]: about 100%
- entries into the open arms (PLC-β4^−/− mice [4]): indistinguishable from wild-type mice injected with saline
- total entries into the closed and open arms (PLC-β4^−/− mice [4]; three groups): did not differ among the three groups
- amplitude of the cholinergic theta rhythms (PLC-β4^−/− mice [5]; alert immobility, novel environment): restored to a level similar to that of the wild-type mice injected with saline
- amplitude of non-cholinergic type I theta rhythms (PLC-β4^−/− mice [5]; recorded during locomotion (walking) in new open field, vs saline-injected KO and WT mice): not significantly different among the three groups
- time in the light chamber (PLC-β4^−/− mice [6]): indistinguishable from that of wild-type mice injected with saline
- transitions between light and dark boxes (PLC-β4^−/− mice [6]): indistinguishable from that of wild-type mice injected with saline
